Measurements taken from PubChem BioAssay AID2060901 (Molecular Pharmacology Branch, DTP, NCI, 2025).
One block for each molecule: values may come before it.

Tested on: 422866-222-R5-J1-PDC complex spheroids viability
Assay: Anticancer human tumor 422866-222-R5-J1-PDC patient-derived pancreatic adenocarcinoma cell line growth inhibition [RAS]
Settings: for IC50: curve of first compound; for viability, T/C: stronger effect = lower value
Procedure, shortened: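 Multi-cell-type spheroids: tumor cells plus HUVEC endothelial cells and mesenchymal stem cells. RAS-pathway inhibitors were combined with targeted agents, each dosed in half-log steps down from clinical Cmax, or from 10 microM when Cmax was unknown.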

[1] = second compound 0.000949 µM, first compound 0.0316 µM
[2] = second compound 0.000949 µM, first compound 0.1 µM
[3] = second compound 0.000949 µM, first compound 0.316 µM
[4] = second compound 0.000949 µM, first compound 1 µM
[5] = second compound 0.003 µM, first compound 0.0316 µM
[6] = second compound 0.003 µM, first compound 0.1 µM
[7] = second compound 0.003 µM, first compound 0.316 µM
[8] = second compound 0.003 µM, first compound 1 µM
[9] = second compound 0.00949 µM, first compound 0.0316 µM
[10] = second compound 0.00949 µM, first compound 0.1 µM
[11] = second compound 0.00949 µM, first compound 0.316 µM
[12] = second compound 0.00949 µM, first compound 1 µM
[13] = second compound 0.03 µM, first compound 0.0316 µM
[14] = second compound 0.03 µM, first compound 0.1 µM
[15] = second compound 0.03 µM, first compound 0.316 µM
[16] = second compound 0.03 µM, first compound 1 µM
[17] = second compound 0.0949 µM, first compound 0.0316 µM
[18] = second compound 0.0949 µM, first compound 0.1 µM
[19] = second compound 0.0949 µM, first compound 0.316 µM
[20] = second compound 0.0949 µM, first compound 1 µM
[21] = second compound 0.3 µM, first compound 0.0316 µM
[22] = second compound 0.3 µM, first compound 0.1 µM
[23] = second compound 0.3 µM, first compound 0.316 µM
[24] = second compound 0.3 µM, first compound 1 µM
[25] = second compound 0.000949 µM, first compound 3.16 µM
[26] = second compound 0.000949 µM, first compound 10 µM
[27] = second compound 0.003 µM, first compound 3.16 µM
[28] = second compound 0.003 µM, first compound 10 µM
[29] = second compound 0.00949 µM, first compound 3.16 µM
[30] = second compound 0.00949 µM, first compound 10 µM
[31] = second compound 0.03 µM, first compound 3.16 µM
[32] = second compound 0.03 µM, first compound 10 µM
[33] = second compound 0.0949 µM, first compound 3.16 µM
[34] = second compound 0.0949 µM, first compound 10 µM
[35] = second compound 0.3 µM, first compound 3.16 µM
[36] = second compound 0.3 µM, first compound 10 µM
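Further: spheroids exposed to compounds for 7 days.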
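Wherever viability, T/C is given: 100% = DMSO vehicle control viability.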

- IC50 (second compound 0.000949 µM): < 0.00316 µM
- IC50 (second compound 0.003 µM): < 0.00316 µM
- IC50 (second compound 0.00949 µM): < 0.00316 µM
- IC50 (second compound 0.03 µM): < 0.00316 µM
- IC50 (second compound 0.0949 µM): < 0.00316 µM
- IC50 (second compound 0.3 µM): < 0.00316 µM
Structure (SMILES): CCN1CCN(Cc2ccc(Nc3ncc(F)c(-c4cc(F)c5nc(C)n(C(C)C)c5c4)n3)nc2)CC1 + CCn1c(-c2cccnc2C(C)OC)c2c3cc(ccc31)N1CCOC(CC(NC(=O)C(C(C)C)N(C)C(=O)C3(F)CCN(C(=O)C#CC(C)(C)N(C)C)CC3)C(=O)N3CCCC(N3)C(=O)OCC(C)(C)C2)C1
- viability, T/C (second compound 0.000949 µM, first compound 0.00316 µM): 30.8%
- viability, T/C (second compound 0.000949 µM, first compound 0.01 µM): 26.9%
- viability, T/C [1]: 27.2%
- viability, T/C [2]: 25.8%
- viability, T/C [3]: 30%
- viability, T/C [4]: 39%
- viability, T/C (second compound 0.003 µM, first compound 0.00316 µM): 23.8%
- viability, T/C (second compound 0.003 µM, first compound 0.01 µM): 24.9%
- viability, T/C [5]: 23.7%
- viability, T/C [6]: 20.3%
- viability, T/C [7]: 26.3%
- viability, T/C [8]: 37.5%
- viability, T/C (second compound 0.00949 µM, first compound 0.00316 µM): 25%
- viability, T/C (second compound 0.00949 µM, first compound 0.01 µM): 21.9%
- viability, T/C [9]: 20%
- viability, T/C [10]: 21.5%
- viability, T/C [11]: 25.3%
- viability, T/C [12]: 37.5%
- viability, T/C (second compound 0.03 µM, first compound 0.00316 µM): 20.6%
- viability, T/C (second compound 0.03 µM, first compound 0.01 µM): 19.9%
- viability, T/C [13]: 16.8%
- viability, T/C [14]: 19.1%
- viability, T/C [15]: 26.7%
- viability, T/C [16]: 40.3%
- viability, T/C (second compound 0.0949 µM, first compound 0.00316 µM): 18.5%
- viability, T/C (second compound 0.0949 µM, first compound 0.01 µM): 21.1%
- viability, T/C [17]: 19.7%
- viability, T/C [18]: 18.6%
- viability, T/C [19]: 27.5%
- viability, T/C [20]: 37.2%
- viability, T/C (second compound 0.3 µM, first compound 0.00316 µM): 19.9%
- viability, T/C (second compound 0.3 µM, first compound 0.01 µM): 18.8%
- viability, T/C [21]: 18.8%
- viability, T/C [22]: 17.1%
- viability, T/C [23]: 24%
- viability, T/C [24]: 34.9%

- IC50 (second compound 0.000949 µM): < 0.0316 µM
- IC50 (second compound 0.003 µM): < 0.0316 µM
- IC50 (second compound 0.00949 µM): < 0.0316 µM
- IC50 (second compound 0.03 µM): < 0.0316 µM
- IC50 (second compound 0.0949 µM): < 0.0316 µM
- IC50 (second compound 0.3 µM): < 0.0316 µM
Structure (SMILES): C[C@@H](NC(=O)c1ncnc(N)c1Cl)c1ncc(C(=O)Nc2cc(C(F)(F)F)c(Cl)cn2)s1 + CCn1c(-c2cccnc2C(C)OC)c2c3cc(ccc31)N1CCOC(CC(NC(=O)C(C(C)C)N(C)C(=O)C3(F)CCN(C(=O)C#CC(C)(C)N(C)C)CC3)C(=O)N3CCCC(N3)C(=O)OCC(C)(C)C2)C1
- viability, T/C [1]: 32%
- viability, T/C [2]: 30.9%
- viability, T/C [3]: 30.3%
- viability, T/C [4]: 32.5%
- viability, T/C [25]: 29%
- viability, T/C [26]: 37%
- viability, T/C [5]: 25.3%
- viability, T/C [6]: 24%
- viability, T/C [7]: 28.5%
- viability, T/C [8]: 25.6%
- viability, T/C [27]: 25.5%
- viability, T/C [28]: 26.3%
- viability, T/C [9]: 26.9%
- viability, T/C [10]: 23.2%
- viability, T/C [11]: 23.7%
- viability, T/C [12]: 22.2%
- viability, T/C [29]: 24.6%
- viability, T/C [30]: 23.6%
- viability, T/C [13]: 24.7%
- viability, T/C [14]: 19.7%
- viability, T/C [15]: 22.7%
- viability, T/C [16]: 21.7%
- viability, T/C [31]: 25.2%
- viability, T/C [32]: 21%
- viability, T/C [17]: 17.8%
- viability, T/C [18]: 18.4%
- viability, T/C [19]: 21.8%
- viability, T/C [20]: 20.2%
- viability, T/C [33]: 20.7%
- viability, T/C [34]: 21.7%
- viability, T/C [21]: 18%
- viability, T/C [22]: 17.8%
- viability, T/C [23]: 21.5%
- viability, T/C [24]: 20%
- viability, T/C [35]: 21.7%
- viability, T/C [36]: 26.1%

- IC50 (second compound 0.000949 µM): < 0.0316 µM
- IC50 (second compound 0.003 µM): < 0.0316 µM
- IC50 (second compound 0.00949 µM): < 0.0316 µM
- IC50 (second compound 0.03 µM): < 0.0316 µM
- IC50 (second compound 0.0949 µM): < 0.0316 µM
- IC50 (second compound 0.3 µM): < 0.0316 µM
Structure (SMILES): Cc1nc(N2CCC3(CC2)COC(C)C3N)c(CO)nc1Sc1ccnc(N)c1Cl (stereo unspecified) + CCn1c(-c2cccnc2C(C)OC)c2c3cc(ccc31)N1CCOC(CC(NC(=O)C(C(C)C)N(C)C(=O)C3(F)CCN(C(=O)C#CC(C)(C)N(C)C)CC3)C(=O)N3CCCC(N3)C(=O)OCC(C)(C)C2)C1
- viability, T/C [1]: 23.6%
- viability, T/C [2]: 22.8%
- viability, T/C [3]: 17.9%
- viability, T/C [4]: 17.6%
- viability, T/C [25]: 16.4%
- viability, T/C [26]: 17.5%
- viability, T/C [5]: 20.9%
- viability, T/C [6]: 18.5%
- viability, T/C [7]: 17.1%
- viability, T/C [8]: 17.9%
- viability, T/C [27]: 15.9%
- viability, T/C [28]: 23.2%
- viability, T/C [9]: 20%
- viability, T/C [10]: 16.3%
- viability, T/C [11]: 15.8%
- viability, T/C [12]: 14.1%
- viability, T/C [29]: 16.4%
- viability, T/C [30]: 13.6%
- viability, T/C [13]: 20.8%
- viability, T/C [14]: 15.6%
- viability, T/C [15]: 12.8%
- viability, T/C [16]: 14.9%
- viability, T/C [31]: 13.5%
- viability, T/C [32]: 13.8%
- viability, T/C [17]: 15.6%
- viability, T/C [18]: 13.4%
- viability, T/C [19]: 13.9%
- viability, T/C [20]: 11.9%
- viability, T/C [33]: 15.6%
- viability, T/C [34]: 14.2%
- viability, T/C [21]: 17.5%
- viability, T/C [22]: 13.9%
- viability, T/C [23]: 14.9%
- viability, T/C [24]: 12.5%
- viability, T/C [35]: 17.3%
- viability, T/C [36]: 18.8%
